Assay results published in patent US7977358B2, “Pyrazol derivatives” (Hoffmann-La Roche Inc., priority 2007, dated 2011).

Target: T1, human chemokine receptor 2 isoform B (CCR2B) (Homo sapiens, UniProt P41597)
T1 construct: host or cells: CHOK1-CCR2B-A5 (CHO-K1) cells
T1 sequence (P41597 1-360 isoform P41597-2): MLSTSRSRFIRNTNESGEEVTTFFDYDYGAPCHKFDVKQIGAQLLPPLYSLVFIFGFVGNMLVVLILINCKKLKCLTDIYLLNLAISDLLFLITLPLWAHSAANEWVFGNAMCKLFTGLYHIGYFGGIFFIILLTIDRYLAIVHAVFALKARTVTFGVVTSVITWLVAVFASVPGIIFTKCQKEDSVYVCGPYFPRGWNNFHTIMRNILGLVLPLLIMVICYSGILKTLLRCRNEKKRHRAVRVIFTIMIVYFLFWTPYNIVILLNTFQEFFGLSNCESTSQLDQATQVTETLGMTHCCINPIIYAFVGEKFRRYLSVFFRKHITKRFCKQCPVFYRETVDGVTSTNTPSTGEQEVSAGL
Assay: Calcium mobilization assay
Assay type: cell-based
Settings: CHOK1-CCR2B-A5 cells, 20 nM MCP-1, FLIPR
Protocol: Calcium Mobilization Assay
CHOK1-CCR2B-A5 cells (from Euroscreen) stably overexpressing the human chemokine receptor 2 isoform B were cultured in Nutrient Hams F12 medium supplemented with 5% FBS, 100 U/ml penicillin, 100 μg/ml streptomycin, 400 μg/ml G418 and 5 μg/ml puromycin. For the assay cells were grown overnight in 384-well black clear flat bottom polystyrene plates (Costar) at 37° C. at 5% CO2. After washing with DMEM, 20 mM Hepes, 2.5 mM probenecid, 0.1% BSA (DMEM assay buffer) cells were loaded with 4 μM Fluo-4 in the same DMEM assay buffer for 2 hours at 30° C. Excess dye was removed and cells were washed with DMEM assay buffer. 384-well compound plates were prepared with DMEM assay buffer/0.5% DMSO with or without various concentrations of test compounds. Usually compounds were tested for agonist and antagonist activity.
Test compounds were added to the assay plate and agonist activity was monitored as fluorescence for 80 seconds with a FLIPR (488 nm excitation; 510-570 nm emission; Molecular Devices). After 20-30 min. of incubation at 30° C., 20 nM MCP-1 (R&D; Roche) was added and fluorescence was monitored again for 80 seconds. Increases in intracellular calcium are reported as maximum fluorescence after agonist exposure minus basal fluorescence before exposure. Antagonist activity is indicated as inhibitor concentration required for 50% inhibition of specific calcium increases.

Compound	IC50
Cc1nn(-c2cccc(OC(F)(F)F)c2)c(C)c1C(=O)N1CCC(N2CCCC2C)C1 (centres unmarked) [Example 122, [3,5-Dimethyl-1-(3-trifluoromethoxy-phenyl)-1H-pyrazol-4-yl]-(2-methyl-[1,3′]bipyrrolidinyl-1′-yl)-methanone]	730 nM
Cc1nn(-c2cccc(OC(F)(F)F)c2)c(C2CC2)c1C(=O)N1CCC(N2C[C@@H](O)CC2C)CC1 (stereo in doubt) [Example 138, [5-Cyclopropyl-3-methyl-1-(3-trifluoromethoxy-phenyl)-1H-pyrazol-4-yl]-[4-((2R,4S)-4-hydroxy-2-methyl-pyrrolidin-1-yl)-piperidin-1-yl]-methanone]	154 nM
Cc1nn(-c2cccc(C(F)(F)F)c2)c(C)c1C(=O)N1CCC(N2CCOCC2)CC1 [Example 83, [3,5-Dimethyl-1-(3-trifluoromethyl-phenyl)-1H-pyrazol-4-yl]-(4-morpholin-4-yl-piperidin-1-yl)-methanone]	658 nM
CC(=O)N[C@@H]1CCN(C2CCN(C(=O)c3c(C)nn(-c4cccc(OC(F)(F)F)c4)c3C)CC2)C1 [Example 119, N-((R)-1-{1-[3,5-Dimethyl-1-(3-trifluoromethoxy-phenyl)-1H-pyrazole-4-carbonyl]-piperidin-4-yl}-pyrrolidin-3-yl)-acetamide]	306 nM

Stronger by IC50, values ahead:

IC50	Compound
100 nM	CCN(CC)C1CCN(C(=O)c2c(C)nn(-c3cccc(/C=C/c4ccc(Cl)cc4)c3)c2C)C1 (centres unmarked) [Example 29, (1-{3-[(E)-2-(4-Chloro-phenyl)-vinyl]-phenyl}-3,5-dimethyl-1H-pyrazol-4-yl)-(3-diethylamino-pyrrolidin-1-yl)-methanone]
141 nM	Cc1nn(-c2cccc(OC(F)(F)F)c2)c(C2CC2)c1C(=O)N1CCC(N2CCC3(C2)NC(=O)NC3=O)CC1 (centres unmarked) [Example 139, 7-{1-[5-Cyclopropyl-3-methyl-1-(3-trifluoromethoxy-phenyl)-1H-pyrazole-4-carbonyl]-piperidin-4-yl}-1,3,7-triaza-spiro[4.4]nonane-2,4-dione]
122 nM	O=C(c1c(C2CC2)nn(-c2cccc(OC(F)(F)F)c2)c1C1CC1)N1CCC(N2CCCC2)CC1 [Example 76, [3,5-Dicyclopropyl-1-(3-trifluoromethoxy-phenyl)-1H-pyrazol-4-yl]-(4-pyrrolidin-1-yl-piperidin-1-yl)-methanone]
97.2 nM	Cc1c(C(=O)N2CCC(N3CCC[C@H]3CO)CC2)c(-c2ccncc2)nn1-c1cccc(OC(F)(F)F)c1 [Example 161, [4-((S)-2-Hydroxymethyl-pyrrolidin-1-yl)-piperidin-1-yl]-[5-methyl-3-pyridin-4-yl-1-(3-trifluoromethoxy-phenyl)-1H-pyrazol-4-yl]-methanone]
